Source: ChEMBL document CHEMBL5052820, “Organic compounds” (2019)
Where a SMILES comes first, the peptide text is derived from it.

Test: Activation of mouse GPR15 stably expressed in CHO cells expressing Aequorin and Galpha16 measured by luminiscence assay
Assay type: cell-based

EC50: 4.02 µM
Compound: CC(C)C[C@H](NC(=O)[C@H](CCC(N)=O)NC(=O)[C@@H]1CCCN1C(=O)[C@H](CCCCN)NC(=O)[C@@H](N)CCC(N)=O)C(=O)N[C@@H](Cc1c[nH]c2ccccc12)C(=O)N[C@H](C(=O)N[C@H](C(=O)N1CCC[C@H]1C(=O)NCC(=O)N[C@@H](C)C(=O)N[C@@H](CC(C)C)C(=O)N1CCC[C@H]1C(=O)N[C@@H](CCC(N)=O)C(=O)N[C@H](C(=O)O)C(C)C)C(C)C)C(C)C (H-QKPQLWVVPGALPQV-OH)
